Measured values taken from US12421225B2, “Heteroaromatic amide derivative and medicament containing the same” (KAKEN PHARMACEUTICAL CO., LTD., priority 2018, dated 2025).

Experiments:
human Nav1.7 = human Nav1.7 (Homo sapiens (Human), UniProt Q15858); assay: Human Nav1.7 inhibitory activity evaluation (automated patch clamp QPatch16X, HEK293A cells stably expressing human Nav1.7 and human Navβ1); type: cell-based
Procedure, shortened: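 IC50 calculated from the concentration-response of inward current evoked by the second −10 mV, 50 ms depolarisation, which follows a 15 s conditioning step at roughly 30-40% inactivation and a 100 ms −120 mV interval. Cells: HEK293A expressing human Nav1.7/Navβ1, automated patch clamp, room temperature, 0.1% DMSO final.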

human Nav1.5 = human Nav1.5 (Homo sapiens (Human), UniProt Q14524); assay: Human Nav1.5 inhibitory activity evaluation (automated patch clamp QPatch16X, HEK293 cells stably expressing human Nav1.5); type: cell-based
Procedure, shortened: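 IC50 derived from concentration-response of inward current at the 20th of 20 action-potential-mimicking pulses (holding −80 mV, leak corrected with −100 mV step). HEK293 cells stably expressing human Nav1.5, room temperature, extracellular pH 7.4, intracellular CsF-based pH 7.3, 0.1% DMSO.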

[1] = human Nav1.7, automated patch clamp
[2] = human Nav1.5, automated patch clamp
[3] = HEK293A cells stably expressing human Nav1.7 and human Navβ1, automated patch clamp QPatch16X
[4] = HEK293 cells stably expressing human Nav1.5, automated patch clamp QPatch16X

Sequence of human Nav1.5 (Q14524 whole entry): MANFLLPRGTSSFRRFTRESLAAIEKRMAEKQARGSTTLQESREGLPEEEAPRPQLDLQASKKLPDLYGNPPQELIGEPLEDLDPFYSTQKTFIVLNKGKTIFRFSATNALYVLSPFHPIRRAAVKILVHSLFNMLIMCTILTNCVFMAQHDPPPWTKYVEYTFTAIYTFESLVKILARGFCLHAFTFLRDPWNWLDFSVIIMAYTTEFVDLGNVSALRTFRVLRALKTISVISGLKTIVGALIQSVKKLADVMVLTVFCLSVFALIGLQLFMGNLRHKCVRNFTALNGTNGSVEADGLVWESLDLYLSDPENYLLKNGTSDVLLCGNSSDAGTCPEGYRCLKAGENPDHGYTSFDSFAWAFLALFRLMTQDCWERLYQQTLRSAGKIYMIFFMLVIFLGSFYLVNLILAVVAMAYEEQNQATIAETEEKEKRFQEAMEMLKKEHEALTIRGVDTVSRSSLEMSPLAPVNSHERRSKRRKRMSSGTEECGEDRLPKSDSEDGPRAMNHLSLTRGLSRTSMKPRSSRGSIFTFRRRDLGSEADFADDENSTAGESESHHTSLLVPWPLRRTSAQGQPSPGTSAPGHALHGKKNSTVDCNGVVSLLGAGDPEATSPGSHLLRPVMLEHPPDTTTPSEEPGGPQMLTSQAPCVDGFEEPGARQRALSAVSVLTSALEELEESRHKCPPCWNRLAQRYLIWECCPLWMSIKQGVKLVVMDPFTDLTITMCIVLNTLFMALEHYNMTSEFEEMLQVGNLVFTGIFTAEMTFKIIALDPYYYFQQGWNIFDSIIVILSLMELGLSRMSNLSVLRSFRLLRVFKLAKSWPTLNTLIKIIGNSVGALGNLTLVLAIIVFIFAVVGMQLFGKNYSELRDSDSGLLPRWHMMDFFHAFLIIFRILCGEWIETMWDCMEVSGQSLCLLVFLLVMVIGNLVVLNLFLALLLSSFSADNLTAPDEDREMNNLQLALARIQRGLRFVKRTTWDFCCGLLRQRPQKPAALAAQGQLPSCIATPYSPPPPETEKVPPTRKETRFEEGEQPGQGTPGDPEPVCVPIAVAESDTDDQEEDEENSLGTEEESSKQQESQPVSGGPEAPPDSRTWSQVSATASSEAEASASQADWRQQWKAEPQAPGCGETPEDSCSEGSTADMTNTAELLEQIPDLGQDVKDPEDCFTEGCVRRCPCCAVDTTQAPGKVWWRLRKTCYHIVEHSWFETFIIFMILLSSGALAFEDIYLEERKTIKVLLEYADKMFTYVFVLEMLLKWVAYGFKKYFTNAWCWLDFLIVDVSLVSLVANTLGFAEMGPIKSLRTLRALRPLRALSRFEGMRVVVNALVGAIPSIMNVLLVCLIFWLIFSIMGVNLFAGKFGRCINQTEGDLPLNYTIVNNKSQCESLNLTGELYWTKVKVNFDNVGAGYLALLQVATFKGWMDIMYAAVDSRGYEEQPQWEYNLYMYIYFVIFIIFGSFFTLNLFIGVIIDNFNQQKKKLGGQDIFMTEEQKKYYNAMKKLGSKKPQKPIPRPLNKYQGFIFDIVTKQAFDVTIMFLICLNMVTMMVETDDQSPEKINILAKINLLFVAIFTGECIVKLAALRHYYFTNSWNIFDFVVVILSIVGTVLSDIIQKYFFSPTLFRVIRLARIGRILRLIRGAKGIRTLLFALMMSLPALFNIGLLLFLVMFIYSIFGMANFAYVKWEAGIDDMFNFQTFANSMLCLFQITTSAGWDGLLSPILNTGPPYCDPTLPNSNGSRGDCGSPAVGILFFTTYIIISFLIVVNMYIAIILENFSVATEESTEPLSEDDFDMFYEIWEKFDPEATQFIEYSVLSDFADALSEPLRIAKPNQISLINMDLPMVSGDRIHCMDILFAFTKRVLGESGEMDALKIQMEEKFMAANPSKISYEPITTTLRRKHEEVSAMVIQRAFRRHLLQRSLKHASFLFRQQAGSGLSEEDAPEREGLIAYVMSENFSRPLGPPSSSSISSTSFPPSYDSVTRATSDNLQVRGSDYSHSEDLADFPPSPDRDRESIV
Sequence of human Nav1.7 (Q15858 whole entry): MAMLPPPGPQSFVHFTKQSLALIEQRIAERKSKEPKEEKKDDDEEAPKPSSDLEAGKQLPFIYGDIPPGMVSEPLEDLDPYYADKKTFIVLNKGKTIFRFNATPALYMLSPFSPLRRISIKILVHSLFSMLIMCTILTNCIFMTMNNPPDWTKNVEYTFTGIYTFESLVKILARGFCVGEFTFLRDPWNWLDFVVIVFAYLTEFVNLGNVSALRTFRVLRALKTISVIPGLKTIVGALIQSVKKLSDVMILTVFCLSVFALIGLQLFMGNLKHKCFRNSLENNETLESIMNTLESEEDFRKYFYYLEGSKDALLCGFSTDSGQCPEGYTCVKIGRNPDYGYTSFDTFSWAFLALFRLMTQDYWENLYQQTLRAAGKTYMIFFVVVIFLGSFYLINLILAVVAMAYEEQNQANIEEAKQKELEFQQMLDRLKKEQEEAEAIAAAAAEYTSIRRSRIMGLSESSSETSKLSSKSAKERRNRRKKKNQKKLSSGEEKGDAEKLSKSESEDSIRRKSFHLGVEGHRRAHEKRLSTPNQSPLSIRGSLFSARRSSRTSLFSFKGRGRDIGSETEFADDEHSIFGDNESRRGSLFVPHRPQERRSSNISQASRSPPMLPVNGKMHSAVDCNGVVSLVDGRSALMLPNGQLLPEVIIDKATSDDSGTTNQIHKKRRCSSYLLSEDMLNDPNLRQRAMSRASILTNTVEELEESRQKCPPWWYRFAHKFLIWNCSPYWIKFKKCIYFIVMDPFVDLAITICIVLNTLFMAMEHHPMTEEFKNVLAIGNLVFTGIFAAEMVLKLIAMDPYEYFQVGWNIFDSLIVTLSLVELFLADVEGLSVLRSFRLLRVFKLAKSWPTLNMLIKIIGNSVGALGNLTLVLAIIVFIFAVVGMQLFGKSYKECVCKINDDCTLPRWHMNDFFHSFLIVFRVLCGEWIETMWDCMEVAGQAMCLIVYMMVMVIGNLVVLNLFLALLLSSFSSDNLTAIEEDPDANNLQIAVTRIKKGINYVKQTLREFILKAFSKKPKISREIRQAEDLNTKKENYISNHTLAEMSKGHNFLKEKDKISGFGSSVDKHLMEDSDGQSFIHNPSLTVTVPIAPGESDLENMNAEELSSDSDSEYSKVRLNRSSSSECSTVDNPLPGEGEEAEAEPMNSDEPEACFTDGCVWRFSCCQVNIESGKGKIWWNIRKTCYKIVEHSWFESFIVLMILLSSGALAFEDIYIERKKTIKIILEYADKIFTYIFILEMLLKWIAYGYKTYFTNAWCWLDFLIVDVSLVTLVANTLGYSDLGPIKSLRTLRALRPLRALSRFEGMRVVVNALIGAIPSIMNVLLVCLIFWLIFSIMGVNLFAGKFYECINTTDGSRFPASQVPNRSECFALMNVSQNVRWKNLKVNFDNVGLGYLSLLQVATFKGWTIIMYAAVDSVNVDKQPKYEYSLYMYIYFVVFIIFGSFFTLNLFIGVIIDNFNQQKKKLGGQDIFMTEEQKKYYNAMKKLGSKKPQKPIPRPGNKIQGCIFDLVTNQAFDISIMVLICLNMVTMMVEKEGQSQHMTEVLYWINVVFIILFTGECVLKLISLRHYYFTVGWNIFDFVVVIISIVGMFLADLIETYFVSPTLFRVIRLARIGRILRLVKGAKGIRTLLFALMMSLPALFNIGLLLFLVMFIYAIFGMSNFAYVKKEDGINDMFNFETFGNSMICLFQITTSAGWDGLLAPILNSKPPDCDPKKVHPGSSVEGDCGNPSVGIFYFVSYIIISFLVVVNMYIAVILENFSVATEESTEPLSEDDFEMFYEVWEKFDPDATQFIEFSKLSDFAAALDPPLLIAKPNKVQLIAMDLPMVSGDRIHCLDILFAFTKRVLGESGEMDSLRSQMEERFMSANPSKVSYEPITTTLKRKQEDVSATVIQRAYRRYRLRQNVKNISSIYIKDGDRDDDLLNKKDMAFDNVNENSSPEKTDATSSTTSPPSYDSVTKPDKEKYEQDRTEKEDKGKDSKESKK
Sequence of human Nav1.7 (Q07699 19-218 partner): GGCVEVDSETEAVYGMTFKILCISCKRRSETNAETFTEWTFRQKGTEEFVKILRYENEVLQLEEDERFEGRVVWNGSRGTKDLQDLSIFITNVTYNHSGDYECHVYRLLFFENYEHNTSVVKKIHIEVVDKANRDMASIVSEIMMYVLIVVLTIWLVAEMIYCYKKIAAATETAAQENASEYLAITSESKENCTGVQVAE

Row | SMILES | IC50 (human Nav1.7; [1]) | IC50 (human Nav1.7; [3]) | IC50 (human Nav1.5; [2]) | IC50 (human Nav1.5; [4])
1 | O=C(N[C@H]1COc2ccc(-c3ccccn3)cc2C1)c1cc2n(n1)CCC(COCC(F)(F)F)O2 (single isomer, unassigned) [131 (isomer B)] |  | < 10000 nM |  | ≥ 3000 nM
2 | O=C(c1cn2c(n1)CCC(c1cccnc1C(F)(F)F)C2)N1CCC1Cc1ccccc1 (stereo not drawn) [Example 30] |  | < 10000 nM |  | ≥ 3000 nM
3 | O=C(N[C@H]1COc2ccc(COCC(F)(F)F)cc2C1)c1cc2n(n1)CC(CCNCC(F)(F)F)O2 (stereo partly drawn) [Example 231] | < 1000 nM |  | ≥ 3000 nM | 
4 | C[C@H]1CCn2nc(C(=O)N[C@H]3COc4ccc(Cl)cc4C3)cc2O1 [Example 86] |  | < 1000 nM |  | ≥ 3000 nM
5 | O=C(N[C@H]1COc2ccc(Br)cc2C1)c1cc2n(n1)CCC(c1ccccc1F)O2 (stereo partly drawn) [Example 71] |  | < 1000 nM |  | < 1000 nM
6 | N#Cc1ccc2c(c1)C[C@@H](NC(=O)c1cc3n(n1)CC(CCCOCC(F)(F)F)O3)CO2 (single isomer, unassigned) [246 (isomer A)] | < 1000 nM |  | 1000 to 3000 nM | 
7 | O=C(N[C@H]1COc2ccc(CCOC(F)F)cc2C1)c1cc2n(n1)CCC(C(F)F)O2 (stereo partly drawn) [Example 164] | < 1000 nM |  | ≥ 3000 nM | 
8 | CCc1ccc2c(c1)C[C@@H](NC(=O)c1cc3n(n1)CCC(c1ccccc1F)O3)CO2 (stereo partly drawn) [Example 76] |  | < 1000 nM |  | ≥ 3000 nM
9 | N#CC1(COCC2CCn3nc(C(=O)N[C@H]4COc5ccc(Cl)cc5C4)cc3O2)CC1 (stereo partly drawn) [Example 538] | < 1000 nM |  | ≥ 3000 nM | 
10 | O=C(N[C@H]1COc2ccc(COCC(F)(F)F)cc2C1)c1cc2n(n1)CCC(COCC(F)(F)F)O2 (single isomer, unassigned) [129 (isomer B)] |  | < 1000 nM |  | 1000 to 3000 nM
11 | CC1(C)CCn2nc(C(=O)N[C@H]3COc4ccc(Cl)cc4C3)cc2O1 [Example 177] | < 1000 nM |  | 1000 to 3000 nM | 
12 | O=C(N[C@H]1COc2ccccc2C1)c1nc2n(c1-c1ccccc1)CCCC2 [Example 16] |  | < 1000 nM |  | < 1000 nM
13 | N#Cc1ccc2c(c1)C[C@@H](NC(=O)c1cc3n(n1)CCC(c1c(F)cccc1F)O3)CO2 (stereo partly drawn) [Example 366] | < 1000 nM |  | 1000 to 3000 nM | 
14 | O=C(N[C@H]1COc2ccc(Cl)cc2C1)c1cc2n(n1)CCC(CNCC(F)(F)F)O2 (stereo partly drawn) [Example 151] | < 1000 nM |  | 1000 to 3000 nM | 
15 | CCCOCC1CCn2nc(C(=O)N[C@H]3COc4ccc(C#N)cc4C3)cc2O1 (single isomer, unassigned) [101 (isomer B)] |  | < 10000 nM |  | ≥ 3000 nM
16 | O=C(N[C@H]1COc2ccc(CCN3CC(F)(F)C3)cc2C1)c1cc2n(n1)CCC(C(F)(F)F)O2 (stereo partly drawn) [Example 401] | < 10000 nM |  | ≥ 3000 nM | 
17 | O=C(N[C@H]1COc2ccc(Cl)cc2C1)c1cc2n(n1)CC(CCNCC(F)(F)F)O2 (stereo partly drawn) [Example 225] | < 1000 nM |  | 1000 to 3000 nM | 
18 | N#Cc1ccc2c(c1)C[C@@H](NC(=O)c1cc3n(n1)CCC(COCC1CC1)O3)CO2 (single isomer, unassigned) [103 (isomer B)] |  | < 10000 nM |  | ≥ 3000 nM
19 | O=C(N[C@H]1COc2ccccc2C1)c1cc2n(n1)CCC(c1ccccc1)N2 (stereo partly drawn) [Example 287] | < 10000 nM |  | ≥ 3000 nM | 
20 | CN1Cc2nc(C(=O)N[C@H]3COc4cccc(F)c4C3)cn2CC1c1cccc(C(F)(F)F)n1 (stereo partly drawn) [Example 47] |  | < 10000 nM |  | ≥ 3000 nM
21 | N#Cc1ccc2c(c1)C[C@@H](NC(=O)c1cc3n(n1)CCC(c1ccccc1F)O3)CO2 (stereo partly drawn) [Example 359] | < 1000 nM |  | ≥ 3000 nM | 
22 | N#Cc1ccc2c(c1)C[C@@H](NC(=O)c1cc3n(n1)CC(CCSCC(F)(F)F)O3)CO2 (single isomer, unassigned) [244 (isomer B)] | < 1000 nM |  | < 1000 nM | 

Further lines, with some results ahead:

Row | IC50 (human Nav1.7; [1]) | IC50 (human Nav1.7; [3]) | SMILES | IC50 (human Nav1.5; [2]) | IC50 (human Nav1.5; [4])
23 | < 1000 nM |  | CCCC1CCn2nc(C(=O)N[C@H]3COc4ccc(Cl)cc4C3)cc2O1 (stereo partly drawn) [Example 389] | 1000 to 3000 nM | 
24 | < 1000 nM |  | O=C(N[C@H]1COc2ccc(Cl)cc2C1)c1cc2n(n1)CCC(CNCC(F)(F)F)O2 (single isomer, unassigned) [152 (isomer A)] | ≥ 3000 nM | 
25 | < 10000 nM |  | CN1Cc2nc(C(=O)NCC(F)c3cccc(C(F)(F)F)c3)cn2CC1c1cccc(C(F)(F)F)n1 (stereo not drawn) [Example 333] | ≥ 3000 nM | 
26 |  | < 1000 nM | O=C(N[C@H]1COc2ccc(CC(F)F)cc2C1)c1cc2n(n1)CCC(COC(F)F)O2 (stereo partly drawn) [Example 137] |  | ≥ 3000 nM
27 |  | < 1000 nM | O=C(N[C@H]1COc2ccccc2C1)c1cn2c(n1)CCC(COc1ccccc1)C2 (stereo partly drawn) [Example 33] |  | 1000 to 3000 nM
28 | < 10000 nM |  | CC1(C)CCn2nc(C(=O)N[C@H]3COc4ccc(C#N)cc4C3)cc2O1 [Example 178] | ≥ 3000 nM | 
29 |  | < 10000 nM | CCOc1cccc(CCNC(=O)c2cc3n(n2)CCC(c2ccccc2)O3)c1 (stereo not drawn) [Example 79] |  | ≥ 3000 nM
30 | < 10000 nM |  | N#Cc1ccc2c(c1)C[C@@H](NC(=O)c1cc3n(n1)CC(CSCC(F)(F)F)O3)CO2 (stereo partly drawn) [Example 199] | ≥ 3000 nM | 
31 | < 1000 nM |  | N#Cc1ccc2c(c1)C[C@@H](NC(=O)c1cc3n(n1)CC(CCOCC1CC1)O3)CO2 (stereo partly drawn) [Example 201, N—((R)-6-cyanochroman-3-yl)-2-(2-(cyclopropylmethoxy)ethyl)-2,3-dihydropyrazolo[5,1-b]oxazole-6-carboxamide] | 1000 to 3000 nM | 
32 |  | < 10000 nM | N#Cc1ccc2c(c1)C[C@@H](NC(=O)c1cc3n(n1)CCC(COC(F)(F)F)O3)CO2 (single isomer, unassigned) [134 (isomer B)] |  | ≥ 3000 nM
33 | < 1000 nM |  | O=C(NC1COc2cccc(C(F)F)c2C1)c1cn2c(n1)CCC(C(F)(F)F)C2 (stereo not drawn) [Example 292] | 1000 to 3000 nM | 
34 |  | < 10000 nM | O=C(NC1COc2cccc(OC(F)(F)F)c2C1)c1cc2n(n1)CCC(c1ccccc1)O2 (stereo not drawn) [Example 78] |  | ≥ 3000 nM
35 | < 1000 nM |  | O=C(N[C@H]1COc2ccc(COCC(F)(F)F)cc2C1)c1cc2n(n1)CC(COCC1CC1)O2 (stereo partly drawn) [Example 185] | ≥ 3000 nM | 
36 | < 1000 nM |  | O=C(N[C@H]1COc2ccc(C(F)(F)F)cc2C1O)c1cc2n(n1)CC(CCCOCC(F)(F)F)O2 (single isomer, unassigned) [616 (isomer A)] | 1000 to 3000 nM | 
37 | < 1000 nM |  | O=C(N[C@H]1COc2ccc(COCC(F)(F)F)cc2C1)c1cc2n(n1)CC(COCC(F)(F)F)O2 (stereo partly drawn) [Example 187, 2-((2,2,2-trifluoroethoxy)methyl)-N—((R)-6-((2,2,2-trifluoroethoxy)methyl)chroman-3-yl)-2,3-dihydropyrazolo[5,1-b]oxazole-6-carboxamide] | ≥ 3000 nM | 
38 | < 10000 nM |  | C[C@@H]1CN(c2cccc(C3CCc4nc(C(=O)N5CCC(c6ccccc6)C5)cn4C3)n2)C[C@H](C)O1 (stereo partly drawn) [Example 311] | ≥ 3000 nM | 
39 |  | < 10000 nM | O=C(c1cn2c(n1)CCC(CCc1ccccc1)C2)N1CCC(Oc2ccccn2)C1 (stereo not drawn) [Example 29] |  | 1000 to 3000 nM
40 | < 1000 nM |  | O=C(N[C@H]1COc2ccc(COCC(F)(F)F)cc2C1)c1cc2n(n1)CC(CCOCC(F)F)O2 (single isomer, unassigned) [224 (isomer A)] | ≥ 3000 nM | 
41 |  | < 10000 nM | O=C(N[C@H]1COc2ccccc2C1)c1cn2c(n1)CNC(c1cccc(C(F)(F)F)n1)C2 (stereo partly drawn) [Example 46] |  | 1000 to 3000 nM
42 | < 1000 nM |  | O=C(N[C@H]1COc2ccc(-c3cncnc3)cc2C1)c1cc2n(n1)CCC(c1ccccc1F)O2 (stereo partly drawn) [Example 357] | ≥ 3000 nM | 
